Earlier results as cited in PMC8969080 (Dalton transactions (Cambridge, England : 2003), 2022).
Where two headings read alike, the source gives them in different places.

Settings: 1:1 Metal/Ligand, 50 μM

Calculated pM (−log[M]free; M = Cu^2+) (pH 6.6): 9.7
Calculated pM (−log[M]free; M = Cu^2+) (pH 7.4): 10.7
SMILES: O=C(O)CN(CCN(CC(=O)O)CC(=O)O)CCN(CC(=O)O)CC(=O)O [DTPA, diethylenetriaminepentaacetic acid]
